Experimental data as given in patent US20050074834A1 (priority 2001, published 2005).
Entries after “also recorded” stand apart in the source; their conditions may differ. No end group written: not given here.

Columns and labels:
[1] = tested on: chromatophores
[2] = tested on: erythrophores; format: cell-based
[3] = tested on: chromatophores; experiment: cells; conditions: read-out: Threshold concentration PPM
[4] = tested on: iridophores; format: cell-based
[5] = tested on: melanophores; format: cell-based
[6] = tested on: fish chromatophores; format: cell-based
[7] = tested on: Betta splendens erythrophores; format: cell-based
[8] = tested on: Betta chromatophores; format: cell-based

## [Ni] [Ni]
[1]
  Chromatophore response (cell spans the chromatophore type columns): Imp. (FS)
  Threshold concentration PPT: X (key: X=1 PPT or higher)

## c1cc2c3c(cccc3c1)CC2 [Acenapthene]
[2]
  Chromatophore response Erythrophores: Imp.
[1]
  Threshold concentration PPM: X (key: X=1 to 100 PPM; XX=100 to 1000 PPM)

## Nc1ncnc2c1ncn2[C@@H]1O[C@H](CO)[C@@H](O)[C@H]1O [Adenosine]
[1]
  Chromatophore response (cell spans the chromatophore type columns): Disp.
[3]
  minimal effective concentration: 100 to 1000 µg/mL

## CC(COc1ccccc1)N(CCCl)Cc1ccccc1 (centres unmarked) [Phenoxy-benzamine]
[1]
  Chromatophore response (cell spans the chromatophore type columns): Blocks norepinephrine

## Substance P (RPKPQQFFGLM; ends and bridges not checked; UniProt P20366 58-68, looked up)
[1]
  Chromatophore response (cell spans the chromatophore type columns): Hue changes (FS)

## COP(=O)(OC)C(O)C(Cl)(Cl)Cl (centres unmarked) [Trichlorfon]
[2]
  Chromatophore response Erythrophores: Imp. (FS)
[4]
  Chromatophore response Iridophores: Hue change (FS)
[1]
  Response time Hr.: X (key: X=1-6 hr; XX=6-24 hr)

## C[C@]12CCC(=O)C=C1CC[C@@H]1[C@@H]2[C@@H](O)C[C@@]2(C)[C@H]1CC[C@]2(O)C(=O)CO [Hydrocortisone]
[5]
  Chromatophore response Melanophores: Hyp. D.
[2]
  Chromatophore response Erythrophores: HypD.
[1]
  Response time Hr.: XX (key: X=1-6 hr; XX=6-24 hr)

## O=S(=O)(NCCNC/C=C/c1ccc(Br)cc1)c1cccc2cnccc12 [H89]
[6]
  chromatophore response in the absence of forskolin: aggregate; also recorded: aggregation
  chromatophore response in the presence of forskolin: continues to be responsive; also recorded: still results in cell aggregation

## Cc1ccc(N(CC2=NCCN2)c2cccc(O)c2)cc1 [Phentolamine]
[1]
  Chromatophore response (cell spans the chromatophore type columns): Blocks norepinephrine

## c1cc2ccc3cccc4ccc(c1)c2c34 [Pyrene]
[3]
  minimal effective concentration: 1 to 100 µg/mL

## COC(=O)C1=C(C)NC(C)=C([N+](=O)[O-])C1c1ccccc1C(F)(F)F (centres unmarked) [Bay K8644]
[7]
  erythrophore pigment response on direct application: neither the aggregation nor dispersion of erythrophore pigment

## NCCNS(=O)(=O)c1cccc2cnccc12 [Protein kinase inhibitor H-9]
[5]
  Chromatophore response Melanophores: Disp.
[1]
  Threshold concentration PPM: XX (key: X=1 to 100 PPM; XX=100 to 1000 PPM)

## CCCCCCC(C)(C)c1ccc([C@@H]2C[C@H](O)CC[C@H]2CCCO)c(O)c1 [Cannabinoid CP-55940, CP-55940]
[1]
  Chromatophore response (cell spans the chromatophore type columns): Disp. (FS)

## CCOC(=O)c1cccc(N)c1 [Tricaine]
[5]
  Chromatophore response Melanophores: Disp.
[1]
  Threshold concentration PPM: X (key: X=1 to 100 PPM; XX=100 to 1000 PPM)

## CN(C)CCC(c1ccccc1)c1ccccn1 (centres unmarked) [Pheniramine]
[3]
  minimal effective concentration: 100 to 1000 µg/mL

## CC(N)Cc1ccccc1 (centres unmarked) [Amphetamine]
[1]
  Chromatophore response (cell spans the chromatophore type columns): Aggr. (FS)
[3]
  minimal effective concentration: 1 to 100 µg/mL

## CNc1ccc2oc(C[C@H]3O[C@@]4(CC[C@H]3C)O[C@H]([C@H](C)C(=O)c3ccc[nH]3)[C@H](C)C[C@H]4C)nc2c1C(=O)O [A23187]
[7]
  Morphology Effect: Aggregation: No
  Morphology Effect: Dispersion: No

## C=O [Formaldehyde]
[3]
  minimal effective concentration: 100 to 1000 µg/mL

## O=C(O)c1ccccc1O [Salicylate]
[1]
  Chromatophore response (cell spans the chromatophore type columns): Imp. (FS)
  Threshold concentration PPM: XX (key: X=1 to 100 PPM; XX=100 to 1000 PPM)

## C/C=C(/C)C(=O)O[C@H]1C(C)=C2[C@H]([C@@H]1OC(=O)CCCCCCC)[C@@](C)(OC(C)=O)C[C@H](OC(=O)CCC)[C@@]1(O)[C@H]2OC(=O)[C@@]1(C)O [Thapsigargin]
[7]
  Morphology Effect: Aggregation: Yes
  Morphology Effect: Dispersion: No

## CNCCNS(=O)(=O)c1cccc2cnccc12 [Protein kinase inhibitor H-8]
[5]
  Chromatophore response Melanophores: Disp.
[1]
  Threshold concentration PPM: XX (key: X=1 to 100 PPM; XX=100 to 1000 PPM)

## NCCc1c[nH]cn1 [Histamine]
[3]
  minimal effective concentration: 100 to 1000 µg/mL

## CNCCCN1c2ccccc2CCc2ccccc21 [Desipramine]
[1]
  Chromatophore response (cell spans the chromatophore type columns): Aggr. (FS)
[3]
  minimal effective concentration: 1 to 100 µg/mL

## NCCc1c[nH]c2ccc(O)cc12 [Serotonin]
[1]
  Chromatophore response (cell spans the chromatophore type columns): Partial Aggr.
[3]
  minimal effective concentration: 1 to 100 µg/mL

## CC(=O)OCOC(=O)CN(CC(=O)OCOC(C)=O)c1ccccc1OCCOc1ccccc1N(CC(=O)OCOC(C)=O)CC(=O)OCOC(C)=O [BAPTA/AM]
[7]
  Morphology Effect: Aggregation: No
  Morphology Effect: Dispersion: Yes
  erythrophore pigment response on addition: pigment dispersion

## C=CC[C@@H](CC/C(C)=C/C=C/CC/C=C\[C@@H]1CSC([C@@H]2C[C@@H]2C)=N1)OC [Curacin A]
[1]
  Chromatophore response (cell spans the chromatophore type columns): Aggr. and Imp. (FS)
  Response time Hr.: X (key: X=1-6 hr; XX=6-24 hr)
  Threshold concentration PPM: X (key: X=1 to 100 PPM; XX=100 to 1000 PPM)

## C[C@H](CCC(=O)O)C[C@H](C)C[C@H](C)C(=O)/C=C(\O)[C@H](C)C[C@H](C)C/C=C/[C@@H](C)[C@@H](O)[C@@H](C)[C@@H](O)C[C@@H]1CC[C@@](C)([C@H]2CC[C@@](C)([C@@H](C)O)O2)O1 [Ionomycin]
[7]
  Morphology Effect: Aggregation: Yes
  Morphology Effect: Dispersion: No
  erythrophore pigment response on addition: slight, but sustained aggregation

## c1ccc2c(c1)-c1cccc3cccc-2c13 [Fluoranthene]
[3]
  minimal effective concentration: 1 to 100 µg/mL

## [Cu] [Cu]
[1]
  Chromatophore response (cell spans the chromatophore type columns): Imp. (FS)
  Threshold concentration PPT: X (key: X=1 PPT or higher)

## MCH
[5]
  Chromatophore response Melanophores: Aggr.
[1]
  Threshold concentration PPB: X (key: X=1 to 100 PPB; XX=100 to 1000 PPB)

## OO [Hydrogen peroxide]
[1]
  Chromatophore response (cell spans the chromatophore type columns): Imp. (FS)
[3]
  minimal effective concentration: 100 to 1000 µg/mL

## c1ccc(C2CC2)c(OCC2=NCCN2)c1 [cirazoline]
[6]
  chromatophore response after forskolin and PMSF: no aggregation occurred
  chromatophore response in the absence of forskolin: aggregate; also recorded: aggregation
  chromatophore response in the presence of forskolin: unresponsive; also recorded: not detectable

## C=C(C=O)C[C@@H]1C[C@H](O)[C@]2(C)O[C@@H]3C[C@@H]4O[C@@H]5C[C@]6(C)O[C@]7(C)CC[C@@H]8O[C@@H]9C[C@]%10(C)O[C@@H]%11C(C)=CC(=O)O[C@H]%11C[C@H]%10O[C@H]9C[C@@H](C)[C@H]8O[C@H]7C[C@H]6O[C@H]5C/C=C\[C@H]4O[C@H]3C[C@H]2O1 [Brevetoxin]
[1]
  Chromatophore response (cell spans the chromatophore type columns): Aggr. (FS)
  Response time Hr.: X (key: X=1-6 hr; XX=6-24 hr)
  Threshold concentration PPM: X (key: X=1 to 100 PPM; XX=100 to 1000 PPM)

## Pertussis toxin: Bacterial toxin, Pertussis toxin
[5]
  Chromatophore response Melanophores: Imp.
[8]
  selective sensitivity of color classes of chromatophores: melanophores to pertussis toxin
[1]
  Response time Hr.: X (key: X=1-6 hr; XX=6-24 hr)
  Threshold concentration PPM: X (key: X=1 to 100 PPM; XX=100 to 1000 PPM)

## μ-Conotoxin GVIA
[7]
  Morphology Effect: Aggregation: No
  Morphology Effect: Dispersion: No

## COP(=O)(OC)OC=C(Cl)Cl [Dichlorvos]
[2]
  Chromatophore response Erythrophores: Imp. (FS)
[4]
  Chromatophore response Iridophores: Hue change, then Imp.
[1]
  Response time Hr.: X (key: X=1-6 hr; XX=6-24 hr)

## COC(=O)[C@@H]1[C@H]2C[C@H]3c4[nH]c5ccccc5c4CCN3C[C@@H]2CC[C@@H]1O [Yohimbine]
[1]
  Chromatophore response (cell spans the chromatophore type columns): Blocks norepinephrine

## COc1ccc(CCN(C)CCCC(C#N)(c2ccc(OC)c(OC)c2)C(C)C)cc1OC (centres unmarked) [Verapamil]
[7]
  Morphology Effect: Aggregation: No
  Morphology Effect: Dispersion: Yes
  erythrophore pigment dispersion response, control: failed to induce pigment dispersion response
  erythrophore pigment response after norepinephrine pre-treatment: produces pigment dispersion
  erythrophore response to verapamil: rapid dispersion; also recorded: disperse almost as completely as possible; also recorded: pigment dispersion; also recorded: larger dispersion
[1]
  Threshold concentration PPB: X (key: X=1 to 100 PPB; XX=100 to 1000 PPB)

## COc1cc2c(c(OC)c1OC)-c1ccc(OC)c(=O)cc1[C@@H](NC(C)=O)CC2 [Colchicine]
[3]
  minimal effective concentration: 100 to 1000 µg/mL

## COC(=O)[C@@]1(O)C[C@H]2O[C@]1(C)n1c3ccccc3c3c4c(c5c6ccccc6n2c5c31)C(=O)NC4 [Protein kinase inhibitor K252a]
[3]
  minimal effective concentration: 1 to 100 µg/mL

## O=S(=O)(F)Cc1ccccc1 [PMSF, phenylmethylsulfonyl fluoride]
[6]
  effect of PMSF on sensitivity to H89: heightens the sensitivity of cells to H89; also recorded: increased sensitivity to H89 inhibition
[1]
  Chromatophore response (cell spans the chromatophore type columns): Imp. (FS)
  Threshold concentration PPM: X (key: X=1 to 100 PPM; XX=100 to 1000 PPM)

## NCCc1ccc(O)c(O)c1 [Dopamine]
[1]
  Chromatophore response (cell spans the chromatophore type columns): Aggr. (FS)
[3]
  minimal effective concentration: 100 to 1000 µg/mL

## CC(=O)OCC[N+](C)(C)C [Acetylcholine]
[3]
  minimal effective concentration: 1 to 100 µg/mL

## c1ccc2cc3c(ccc4ccccc43)cc2c1 [1,2-Benzanthracene]
[2]
  Chromatophore response Erythrophores: Imp.
[1]
  Threshold concentration PPM: X (key: X=1 to 100 PPM; XX=100 to 1000 PPM)

## [Ag] [Ag]
[1]
  Chromatophore response (cell spans the chromatophore type columns): Imp. (FS)
  Threshold concentration PPT: X (key: X=1 PPT or higher)

## C=C1[C@@H](C)[C@H]2[C@H](Cc3ccccc3)NC(=O)[C@]23[C@H](OC(C)=O)/C=C/[C@@](C)(O)C(=O)[C@@H](C)C/C=C/[C@H]3[C@@H]1O [Cytochalasin D]
[5]
  Chromatophore response Melanophores: Imp.
[1]
  Threshold concentration PPM: XX (key: X=1 to 100 PPM; XX=100 to 1000 PPM)

## COc1cc(CNC(=O)CCCC/C=C/C(C)C)ccc1O [Capsaicin]
[5]
  Chromatophore response Melanophores: Hollow-
[3]
  minimal effective concentration: 1 to 100 µg/mL

## [Pb] [Pb]
[1]
  Chromatophore response (cell spans the chromatophore type columns): Imp. (FS)
  Threshold concentration PPT: X (key: X=1 PPT or higher)

## N [Ammonium]
[1]
  Chromatophore response (cell spans the chromatophore type columns): Imp. (FS)
  Threshold concentration PPM: XX (key: X=1 to 100 PPM; XX=100 to 1000 PPM)

## CCOP(=S)(Oc1ccc([N+](=O)[O-])cc1)c1ccccc1 (centres unmarked) [EPN]
[1]
  Response time Hr.: X (key: X=1-6 hr; XX=6-24 hr)
  Threshold concentration PPM: XX (key: X=1 to 100 PPM; XX=100 to 1000 PPM)
